Data published in US12589143B2, “Human anti-PD-L1 peptide vaccines and methods of their use” (priority 2019, dated 2026).
Where no end group is shown, it is not given here.

Key:
[1] = biological target: T1, PD-1/PD-L1 interaction (Homo sapiens, UniProt Q9NZQ7); assay: PD-1/PD-L1 blockade bioassay (Promega); format: cell-based; settings: antibodies from immunized rabbits, compared to Nivolumab and Atezolizumab
T1 construct: host or cells: PD-L1 aAPC/CHO-K1 cells and PD-1 effector cells
Procedure: The assay was performed following the manufacturer's protocol for the PD-1/PD-L1 blockade bioassay (Promega).
The bioluminescent cell-based PD-1/PD-L1 blockade bioassays provide a good option for rapid screening of therapeutic antibodies or other compounds developed to interfere with PD-1-signaling interaction. PD1/PD-L1 blockade assay was used to test the functionality of 3 anti-PD-L1 antibodies. It was observed that purified polyclonal anti-PD-L1 antibody from the rabbits was able to block PD1/PD-L1 interaction similar to commercial anti-human PD-L1 antibody (FIG. 12). […] In FIG. 12, we show the capacity of each of the PD-L1 vaccines to block the PD-1:PD-L1 interaction as compared to Nivolumab and Atezolizumab. Remarkably only PD-L1 130-147 antibodies were effective
The assay was performed following the manufacturer's protocol for the PD-1/PD-L1 blockade bioassay (Promega). In brief, 4×10^5 aAPC/CHO-K1 or PD-L1 aAPC/CHO-K1 cells were seeded into 96-well plates in RPMI-1640 with 10% FBS. After overnight culturing, the medium was aspirated, and serially diluted purified PD-L1 or PD-1 antibodies, as well as Nivolumab and Atezolizumab antibodies (as reference antibodies) were added. Next, PD-1 effector cells were co-cultured and plate was kept for 5 h at 37° C. in a humidified 5% CO2 incubator. Following mixing with Bio-Glo Reagent, the luminescence was measured with a luminescence plate reader, SpectraMax M3 plate reader (Molecular Devices).

[2] = system: MVF-PD-L1 peptides; assay: Immunogenicity in rabbits: ELISA antibody titers of sera vs the immunogen; format: in vivo, New Zealand White rabbits; settings: after the second boost
Procedure: Immunogenicity of MVF-PD-L1 B-cell epitopes. New Zealand White rabbits were immunized with 1 mg of each MVF-peptide immunogens dissolved in dd H2O emulsified (1:1) in Montanide ISA 720 vehicle (Seppic) with 333 μg of N-acetylglucosamine-3yl-acetyl-1-alanyl-d-isoglutamine (nor-MDP). Rabbits were boosted with the same doses at 3-week's intervals. Blood was collected via the central auricular artery in rabbits. Blood was collected weekly (1Y+3, 2Y+1, 2Y+2,2Y+3, 3Y+1, 3Y+2 and sera tested for antibody titers by ELISA using the immunogens MVF-PD-L1 peptides. Sera (terminal) from rabbit (3Y+3) immunized with MVF-PD-1 peptide immunogens were tested individually versus the immunogen by ELISA. 200 ng/well peptide were used in duplicates to coat the ELISA plates. Titers are defined as the highest dilution of sera with an absorbance value of 0.2 after subtracting the blank.
For each peptide, vaccine antibodies were raised using New Zealand white rabbits purchased from Charles River Laboratories (Wilmington, MA, USA). […] Antibody titers were monitored by direct ELISA against the peptide immunogen, the peptide B cell epitope, and an acetylated version of the B-cell epitope. […] Peptide vaccine antibodies were purified by affinity chromatography using a protein A/G column and the concentration was measured by Coomassie protein assay. […]

[3] = Mouse antibody isotyping assay; format: in vivo, Balb/c mice
Procedure: We also analyzed the different isotypes of antibodies being generated by vaccination.
Antibody isotypes (i.e. IgA, IgM, IgG1, IgG2a, IgG2b, IgG3) were determined using the Mouse Typer Isotyping Kit (BIO-RAD, Hercules, CA). Briefly, wells of a 96-well assay plate were coated with 200 ng peptide antigen in ddH2O, and incubated at 4° C. overnight. The plate was washed with washing buffer (0.05% Tween-20 and 1% horse sera in PBS). The plate was then blocked with 1% BSA in PBS at room temperature for 1 hour. 100 ul of diluted mice sera was added to each well for 2 hours and after washing the wells, 100 μl ready to use rabbit anti-mouse subclasses antibodies were added to each well respectively and incubated at room temperature for another 2 hours. The wells were washed again, 100 μl of 1/3000 dilution of goat anti-rabbit conjugated to HRP antibody (BIO-RAD, Hercules, CA) was added to each well and incubated for 1 hour at room temperature in dark. The plate was then washed and 50 μl prepared substrate solution was added to each well. The reaction was stopped with 25 μl 5% SDS stopping buffer. Absorbance at 415 nm was determined using an ELISA plate reader. Dilutions of each sera samples were determined by the ELISA titers shown in absorbance of 0.4 or higher after subtracting the background.

T1 sequence (Q9NZQ7 19-290): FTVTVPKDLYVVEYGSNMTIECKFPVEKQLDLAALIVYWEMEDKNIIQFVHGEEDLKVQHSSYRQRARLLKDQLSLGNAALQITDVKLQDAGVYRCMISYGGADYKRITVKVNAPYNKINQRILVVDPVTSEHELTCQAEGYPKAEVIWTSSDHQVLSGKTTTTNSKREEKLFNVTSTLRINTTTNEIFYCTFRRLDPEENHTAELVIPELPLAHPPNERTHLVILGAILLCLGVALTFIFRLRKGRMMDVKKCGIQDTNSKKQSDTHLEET

Row | Sequence | blocking of PD-1/PD-L1 interaction [1] | antibody titers [2] | isotypes of antibodies elicited in the mice ([3]; experiment 1 (CT26 WT)) | isotypes of antibodies elicited in the mice ([3]; experiment 2 (CT26/HER-2))
1 | KLLSLIKGVIVHRLEGVEGPSLFVHGEEDLKVQHSSYRQR (KLLSLIKGVIVHRLEGVEGPSLFVHGEEDLKVQHSSYRQR-NH2) [PD-L1(50)] | unable to block PD-1 and PD-L1 |  |  | 
2 | KLLSLIKGVIVHRLEGVEGPSLVTSEHELTCQAEGYPKAE (KLLSLIKGVIVHRLEGVEGPSLVTSEHELTCQAEGYPKAE-NH2) [PD-L1(130)] | able to inhibit PD-1/PD-L1 | 64,000 | predominantly of the IgG1 class | predominantly of the IgG1 class
3 | KLLSLIKGVIVHRLEGVEGPSLYRCMISYGGADYKRITVK (KLLSLIKGVIVHRLEGVEGPSLYRCMISYGGADYKRITVK-NH2) [PD-L1(95)] | unable to block PD-1 and PD-L1 | 64,000 |  | 
